From US9884833B2, “Crystalline forms of neurotrophin mimetic compounds and their salts” (Pharmatrophix, Inc., priority 2012, dated 2018)

Legend:
Assay type in all cases: physicochemical
[1] = Hygroscopicity by dynamic vapor sorption (DVS); conditions: for water uptake: 0-55% RH; for water uptake (sorption maximum): 95% RH
Protocol: Samples were analyzed using an automated dynamic vapor sorption analyzer. The sample (about 1-10 mg) was dried in the instrument 0% RH for 6 hours. The samples were subjected to 0 to 95% RH back to 5% RH at 25° C. in 5% RH steps.
The water content of the as received material was determined by Karl Fischer to be approximately 0.3 wt %. The moisture sorption-desorption isotherms (FIGS. 3A and 3B) were collected using dynamic vapor sorption (DVS) analysis. […] A hydrate may also form near 60% RH.
FIGS. 3A and 3B show the moisture sorption-desorption isotherm and the kinetic plots for Form A. This sample may undergo hydrate formation ≧60% RH, although the shape of the isotherm is less than ideal.
To understand this further a fresh sample of starting material was staged at 60% RH in DVS for about 3 hours allowing sample to gain about 4 wt %. […] FIG. 21.

[2] = Visual solubility measurement in various solvents
Protocol: About 100 mg of disulfate starting material was placed into each of 26 vials. Solvents were added and the vials were stirred for 30 minutes, followed by visual observation for remaining solids. Additional solvent was incrementally added until the solids were dissolved, or a maximum volume of solvent was added and the experiment was terminated. This solubility data was used in designing experiments, selecting the solvents, anti-solvents for crystallization and slurry experiments, sample consumption, etc.

[3] = Non-competitive slurry experiments (solid form stability)
Text: In addition to the solvent recrystallization experiments, non-competitive slurry experiments were perfoi ined to search for new solid state forms. These experiments rely on solubility differences of different polymorphic forms (if the compound is polymorphic). […] Essentially, when a solid is mixed with solvent as slurry, a saturated solution eventually results. The solution is saturated with respect to the polymorphic form dissolved.
In addition, noncompetitive slurry experiments are often useful in identifying solvents that form solvates with the compound.
The slurry experiments were performed by exposing excess “starting” material (Form A) to neat (single) and binary solvent mixtures and agitating the resulting suspensions for several days at ambient temperature. The solids were vacuum filtered and analyzed by XRD to determine the resulting form. To avoid possible desolvation or physical change after isolation, the samples were not further dried before X-ray analysis.

[4] = Static vapor sorption studies in humidity chambers; conditions: for weight gain by TGA: after 40 days
Text: Static vapor sorption studies were done in hermetic humidity chambers using saturated salts, or environmental humidity chambers to control the temperature and humidity. Data collected during dynamic vapor sorption studies often are not at theiniodynamic equilibrium. To gain a better understanding of the water uptake and the critical humidity level of the API, samples of the starting material (Form A) were monitored in static humidity chambers to allow the sample to equilibrate with aerial moisture.
In these studies, water vapor sorption was determined gravimetrically (or by Thermogravimetric analysis) by storing samples in open aluminum dishes. Samples were stored at 8 different humidities (23, 33, 43, 53, 60, 69, 75 and 84% RH) at ambient temperature. A few hundred milligrams of Form A was staged at each humidity condition.
The samples were examined periodically either by recording the weight change or by monitoring the water content by Karl Fischer or TGA, and/or XRD pattern. […] The samples stored at humidities higher than 60% RH deliquesced after 10 days.

[5] = DVS sorption, 25° C., listed as 2-amino-3-methyl-N-(2-morpholinoethyl)-pentanamide disulfate
[6] = stored at 60% RH, then dried at ~45° C. under vacuum for about 15 days

With “2-amino-3-methyl-N-(2-morpholinoethyl)-pentanamide disulfate [Form A]” the “water remaining in desorption phase” value ([1]; DVS desorption, 65% RH, 25° C.) was about 23 wt %, the “mass above original value at end of desorption cycle” value ([1]; DVS desorption) was about 4 wt % and the “mass above original value at end of desorption cycle” value ([1]; DVS desorption, listed as 2-amino-3-methyl-N-(2-morpholinoethyl)-pentanamide disulfate) was “about 4 wt %”. The water uptake ([1]; DVS sorption, 25° C.) was 2 wt %, the water uptake [1, 5] was “did not sorb much water” and the “water uptake (total)” value ([1]; DVS sorption, 65% RH, 25° C.) was about 23 wt %. For the same substance, the “water uptake (sorption maximum)” value ([1]; DVS sorption, 25° C.) was “approximately 225 wt %”, the “water uptake (sorption maximum)” value [1, 5] was “up to 225 wt %” and the “behaviour at high humidity” value ([1]; DVS, high humidity, followed by glass formation upon evaporation) was “Apparent deliquescence”. The weight gain ([1]; fresh sample staged at 60% RH in DVS for about 3 hours) was “about 4 wt %”, the “relative humidity at which hydrate forms” value ([1]; from DVS isotherm, 25° C.) was about 60 % RH and the “Approx. Solubility” value ([2]; 1-butanol) was “≦1.67 mg/mL”. The “Approx. Solubility” value ([2]; 1-propanol) was “≦1.67 mg/mL”, the “Approx. Solubility” value ([2]; 2-butanol) was “≦1.67 mg/mL” and the “Approx. Solubility” value ([2]; 2-propanol) was “≦1.67 mg/mL”. For the same substance, the “Approx. Solubility” value ([2]; acetone) was “≦1.67 mg/mL”, the “Approx. Solubility” value ([2]; acetonitrile) was “≦1.67 mg/mL” and the “Approx. Solubility” value ([2]; butylamine) was “≦1.67 mg/mL”. For the same substance, the “Approx. Solubility” value ([2]; chloroform) was “≦1.67 mg/mL”, the “Approx. Solubility” value ([2]; dichloromethane) was “≦1.67 mg/mL” and the “Approx. Solubility” value ([2]; diisopropylamine) was “≦1.67 mg/mL”. The “Approx. Solubility” value ([2]; dimethylacetamide (DMA)) was “≦1.67 mg/mL”, the “Approx. Solubility” value ([2]; dimethylformamide (DMF)) was about 1670 µg/mL and the “Approx. Solubility” value ([2]; ethanol) was “≧50 mg/mL”. The “Approx. Solubility” value ([2]; ethyl acetate (EtOAc)) was “≦1.67 mg/mL”, the “Approx. Solubility” value ([2]; heptane) was “≦1.67 mg/mL” and the “Approx. Solubility” value ([2]; isopropyl acetate) was “≦1.67 mg/mL”. The “Approx. Solubility” value ([2]; isopropyl ether) was “≦1.67 mg/mL”, the “Approx. Solubility” value ([2]; methanol, stirred 30 minutes) was “≧100 mg/mL” and the “Approx. Solubility” value ([2]; methyl ethyl ketone (MEK)) was “≦1.67 mg/mL”. The “Approx. Solubility” value ([2]; methyl-t-butyl ether (MTBE)) was “≦1.67 mg/mL”, the “Approx. Solubility” value ([2]; nitromethane) was “≦1.67 mg/mL” and the “Approx. Solubility” value ([2]; pyridine) was “≦1.67 mg/mL”. The “Approx. Solubility” value ([2]; tetrahydrofuran (THF)) was “≦1.67 mg/mL”, the “Approx. Solubility” value ([2]; toluene) was “≦1.67 mg/mL” and the “Approx. Solubility” value ([2]; trifluoroethanol) was “≧50 mg/mL”. The “Approx. Solubility” value ([2]; water) was “≧100 mg/mL”, the “Final Form” value ([3]; slurry in DMA, 27 days, ambient temperature, by XRD) was “monosulfate” and the “Final Form” value ([3]; slurry in DMF/2-propanol (1/1), 19 days) was “monosulfate”. For the same substance, the “Final Form” value ([3]; slurry in DMF/2-propanol (1/2), 19 days) was “monosulfate”, the “Final Form” value ([3]; slurry in DMF/2-propanol (2/1), 19 days) was “monosulfate” and the “Final Form” value ([3]; slurry in DMF/acetone (1/1), 19 days) was “monosulfate”. For the same substance, the “Final Form” value ([3]; slurry in DMF/acetone (1/2), 19 days) was “monosulfate”, the “Final Form” value ([3]; slurry in DMF/acetone (2/1), 19 days) was “monosulfate” and the “Final Form” value ([3]; slurry in DMF/heptane (1/1), 19 days) was “monosulfate”. The “Final Form” value ([3]; slurry in DMF/heptane (1/2), 19 days) was “monosulfate”, the “Final Form” value ([3]; slurry in DMF/heptane (2/1), 19 days) was “monosulfate” and the “Final Form” value ([3]; slurry in water, duration n/a) was “all dissolved”. For the same substance, the “weight gain by TGA” value ([4]; stored at 43% RH) was “approximately 1.0 wt %”, the “weight gain by TGA” value ([4]; stored at 53% RH) was about 1.3 wt % and the state after storage ([4]; stored at 60% RH, after 27 days) was “mostly deliquesced”. For the same substance, the weight gain ([4]; stored at 60% RH, in 20 days) was “approximately 6 wt %”, the “XRD after storage and drying” value [4, 6] was “identical to starting material” and the “weight by TGA after drying” value [4, 6] was “approximately 3.3 wt %”. The state after storage ([4]; stored at humidities higher than 60% RH, ambient temperature, after 10 days) was “deliquesced” and the weight gain ([4]; stored at humidities lower than 43% RH, ambient temperature, after 15 days) was “minimaUno weight gain”.
